Measurements as given in patent US20240400572A1, “COMPOUNDS AND METHODS FOR TREATING CANCERS THAT ARE MGMT DEFICIENT REGARDLESS OF MMR STATUS” (Yale University, priority 2021, published 2024).

Tests used:
BJ fibroblast cells = assay: Short-term cell viability in normal fibroblasts; format: cell-based, human; settings: KL-50 compared with TMZ
Method: Cell Culture. LN229 MGMT− and MGMT+ cell lines were a gift from B. Kaina (Johannes Gutenberg University Mainz, Mainz, Germany) and grown in DMEM with 10% FBS (Gibco). DLD1 BRCA2+/− and BRCA2−/− cell lines (Horizon Discovery, Cambridge, UK) were grown in RPMI 1640 with 10% FBS. HCT116 MLH1−/− and HCT116+Chr3 cell lines were a gift from T. Kunkel (National Institute of Environmental Health Sciences, Durham, NC) and grown in DMEM with 10% FBS, with […] G418 (Sigma) for HCT116+Chr3 cells. PD20 cell lines complemented with empty vector (+EV), wildtype FANCD2 (+FD2), or K561R ubiquitination-mutant FANCD2 (+KR) were a gift from G. Kupfer and P. Glazer (Yale University, New Haven, CT) and growth in DMEM with 10% FBS. PEO1 and PEO4 cell lines were a gift from T. Taniguchi (Fred Hutchinson Cancer Research Center, Seattle, WA) and were grown in DMEM with 10% FBS. BJ fibroblasts (normal human fibroblast cells) were purchased from ATCC (CRL-2522) and grown in DMEM with 10% FBS. […] All human cell lines were validated by short tandem repeat profiling (excluding BJ fibroblasts which were used within 6 passages of receiving from ATCC) and confirmed negative for mycoplasma by quantitative RT-PCR.
(§1) Short-term Cell Viability Assay. […] Cells were imaged on a Cytation 3 imaging reader (BioTek) and quantified using CellProfiler software.

[1] = test system: LN229 MGMT− cells with shRNA targeting MSH6, MLH1, PMS2, or MSH3; assay: Short-term cell viability assay in cells lacking other MMR proteins; format: cell-based, human
Excerpt: FIGS. ZS3A-ZS3J. KL-50 (4a) is effective in TMZ (1a)-resistant cells lacking other MMR proteins. (FIG. ZS3A) Western blotting performed in LN229 MGMT+/− cells with stable expression of shRNA targeting MSH6, MLH1, PMS2, or MSH3 to confirm depletion of the shRNA targets. In shMSH6 cells, there is reduced expression of MSH2, and in shMLH1 cells, there is loss of PMS2, due to destabilization in the setting of loss of their heterodimeric partners. GAPDH serves as loading control. (FIG. ZS3B) (Table S1.) IC50 values derived from short-term viability assays in LN229 MGMT+/− cells lines, +/−shRNA, treated with TMZ (1a) or KL-50 (4a). aMGMT TI (therapeutic index)=IC50 (MGMT+/MMR+) divided by IC50 (MGMT−/MMR+). bMMR RI (resistance index)=IC50 (MGMT−/MMR−) divided by IC50 (MGMT−/MMR+). (FIG. ZS3C) Short-term viability assay curves for TMZ (1a) in LN229 MGMT+/−, MMR+/shMSH6 cells. (FIG. ZS3D) Short-term viability assay curves for KL-50 (4a) in LN229 MGMT+/−, MMR+/shMSH6 cells. (FIG. ZS3E) Short-term viability assay curves for TMZ (1a) in LN229 MGMT+/−, MMR+/shMLH1 cells. (FIG. ZS3F) Short-term viability assay curves for KL-50 (4a) in LN229 MGMT+/−, MMR+/shMLH1 cells. (FIG. ZS3G) Short-term viability assay curves for TMZ (1a) in LN229 MGMT+/−, MMR+/shPMS2 cells. […]
as §1

In the case of `NC(=O)c1ncn2c(=O)n(CCF)nnc12` [KL-50, 3-(2-fluoroethyl)-4-oxo-3H,4H-imidazo[4,3-d][1,2,3,5]tetrazine-8-carboxamide], the “cytotoxicity in normal human fibroblast cells (in words)” value (BJ fibroblast cells) is reported as “no increase in toxicity” and the “activity in MGMT− cells lacking MSH6, MLH1, PMS2, or MSH3 (in words)” value [1] is reported as “confirmed the activity”.
